Results as given in patent publication EP4582413A1, “ARYLTETRAHYDROPYRIDINE COMPOUND AND PEST CONTROL AGENT” (priority 2022, dated 2024).

What was measured:
Assay type in all cases: in vivo
[1] = test system: green peach aphids (Myzus persicae); assay: Insecticidal test for green peach aphids; details: Myzus persicae, foliar, 144 h; 500 ppm chemical solution sprinkled (2.5 mg/cm^2), wingless imagoes on leaf disc, six days, 25°C; read-out: death rate
Protocol: Wet absorbent cotton was laid on each glass dish having an inner diameter of 3 cm, a Chinese olive leaf cut into a circle having a diameter of 3 cm was placed thereon, and four wingless green peach aphids (Myzus persicae) imagoes were released. After a day, a 10% by mass emulsion of the presently invented compound prepared according to the above formulation example for an emulsion was diluted with water containing a spreader to prepare a chemical solution having a concentration of 500 ppm. The chemical solution prepared was sprinkled (2.5 mg/cm^2) with a rotary tower sprinkler, and the dishes were capped and accommodated in a thermostatic room at 25°C. […] The test was carried out in duplicate.

[2] = test system: western flower thrips (Frankliniella occidentalis); assay: Insecticidal activity against western flower thrips; details: Frankliniella occidentalis, 48 h; 500 ppm chemical solution sprinkled (2.5 mg/cm^2), larvae on common bean leaf, after 2 days; read-out: death rate
How it was run: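 Bean leaf squares on wet filter paper inoculated with 20 larvae. Compound emulsion diluted with spreader-containing water to 500 ppm and sprayed at 2.5 mg/cm^2 by rotary tower. Run in duplicate.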

[3] = test system: diamondback moths (Plutella xylostella); assay: Insecticidal test for diamondback moths; details: Plutella xylostella, 144 h; 500 ppm chemical solution, leaves soaked, third-instar larvae, six days, 25°C; read-out: death rate
How it was run: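 Leaves dipped about 10 s in a 500 ppm aqueous dilution of an emulsion formulation with spreader, then air-dried. Five third-instar larvae released per dish and held at 25 °C. Tested in duplicate.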

[4] = test system: cat fleas (Ctenocephalides felis); assay: whole plant or invertebrate; details: 72 h, read-out: death rate
How it was run: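 Glass containers (25 cm² inner surface) were coated with 250 µl of a 1000 ppm acetone solution, and the acetone was evaporated to leave a dry film. Five mixed-sex adult fleas were confined per container at 25°C. Mortality was scored after 3 days.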

[5] = test system: brown rice planthoppers (Nilaparvata lugens); assay: Insecticidal test for brown rice planthoppers; details: Nilaparvata lugens, 144 h; 500 ppm chemical solution, rice leaf sheaths soaked, third-instar larvae, six days, 25°C; read-out: death rate
How it was run: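 Rice leaf sheaths dipped ~10 s in 500 ppm compound solution (emulsion diluted in water with spreader), air-dried, then infested with five third-instar larvae per tube at 25 °C. Mortality scored after 6 days, death rate calculated, in duplicate.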

## CSc1ccc(-c2cc(C3CC(O)=C(C(=O)Nc4ccc(F)cc4)C(=O)N3)ccc2C(F)(F)F)cc1 (stereo not shown) [1-009]
[1]
  mortality at 500 µg/mL: ≥ 90%
[2]
  mortality at 500 µg/mL: ≥ 90%
[3]
  mortality at 500 µg/mL: ≥ 90%
[4]
  mortality at 10 µg/cm2: ≥ 50%

## N#Cc1ccc(NC(=O)C2=C(O)CC(c3cnc(Cl)c(-c4cccnc4)c3)NC2=O)cn1 (stereo not shown) [2-097]
[5]
  mortality at 500 µg/mL: ≥ 90%
[1]
  mortality at 500 µg/mL: ≥ 90%
[3]
  mortality at 500 µg/mL: ≥ 90%
[4]
  mortality at 10 µg/cm2: ≥ 50%

## CC(=O)c1ccc(-c2cc(C3CC(O)=C(C(=O)Nc4ccc(F)cc4)C(=O)N3)ccc2C(F)(F)F)cc1 (stereo not shown) [1-012]
[1]
  mortality at 500 µg/mL: ≥ 90%
[4]
  mortality at 10 µg/cm2: ≥ 50%

## CS(=O)(=O)c1ccc(-c2cc(C3CC(O)=C(C(=O)Nc4ccc(F)cc4)C(=O)N3)ccc2C(F)(F)F)cc1 (stereo not shown) [1-019]
[1]
  mortality at 500 µg/mL: ≥ 90%
[2]
  mortality at 500 µg/mL: ≥ 90%
[3]
  mortality at 500 µg/mL: ≥ 90%
[4]
  mortality at 10 µg/cm2: ≥ 50%

## O=C(Nc1cccc(Cl)c1F)C1=C(O)CC(c2nc(-c3ccnc(F)c3)no2)NC1=O (stereo not shown) [3-248]
[1]
  mortality at 500 µg/mL: ≥ 90%
[3]
  mortality at 500 µg/mL: ≥ 90%
[4]
  mortality at 10 µg/cm2: ≥ 50%

## O=C(Nc1ccc(F)cc1)C1=C(O)CC(c2ccc(C(F)(F)F)c(-c3ccoc3)c2)NC1=O (stereo not shown) [1-015]
[1]
  mortality at 500 µg/mL: ≥ 90%
[2]
  mortality at 500 µg/mL: ≥ 90%
[3]
  mortality at 500 µg/mL: ≥ 90%
[4]
  mortality at 10 µg/cm2: ≥ 50%

## O=C(Nc1ccc(F)cc1)C1=C(O)CC(c2nc(-c3ccsc3)no2)NC1=O (stereo not shown) [3-109]
[1]
  mortality at 500 µg/mL: ≥ 90%
[2]
  mortality at 500 µg/mL: ≥ 90%
[3]
  mortality at 500 µg/mL: ≥ 90%
[4]
  mortality at 10 µg/cm2: ≥ 50%

## C#Cc1ccc(NC(=O)C2=C(O)CC(c3cnc(Cl)c(-c4cccc(C)c4)c3)NC2=O)cc1 (stereo not shown) [2-280]
[1]
  mortality at 500 µg/mL: ≥ 90%
[2]
  mortality at 500 µg/mL: ≥ 90%
[3]
  mortality at 500 µg/mL: ≥ 90%
[4]
  mortality at 10 µg/cm2: ≥ 50%

## CSc1ccccc1-c1cc(C2CC(O)=C(C(=O)Nc3ccc(F)cc3)C(=O)N2)ccc1C(F)(F)F (stereo not shown) [1-008]
[1]
  mortality at 500 µg/mL: ≥ 90%
[2]
  mortality at 500 µg/mL: ≥ 90%
[3]
  mortality at 500 µg/mL: ≥ 90%
[4]
  mortality at 10 µg/cm2: ≥ 50%

## COc1ccccc1-c1cc(C2CC(O)=C(C(=O)Nc3ccc(F)cc3)C(=O)N2)ccc1C(F)(F)F (stereo not shown) [1-016]
[1]
  mortality at 500 µg/mL: ≥ 90%
[2]
  mortality at 500 µg/mL: ≥ 90%
[3]
  mortality at 500 µg/mL: ≥ 90%
[4]
  mortality at 10 µg/cm2: ≥ 50%

## O=C(Nc1cnc(Cl)cn1)C1=C(O)CC(c2cnc(Cl)c(-c3cccnc3)c2)NC1=O (stereo not shown) [2-098]
[5]
  mortality at 500 µg/mL: ≥ 90%
[1]
  mortality at 500 µg/mL: ≥ 90%
[3]
  mortality at 500 µg/mL: ≥ 90%
[4]
  mortality at 10 µg/cm2: ≥ 50%

## O=C(Nc1ccc(F)cc1)C1=C(O)CC(c2nc(-c3cccc(F)c3F)no2)NC1=O (stereo not shown) [3-033]
[5]
  mortality at 500 µg/mL: ≥ 90%
[1]
  mortality at 500 µg/mL: ≥ 90%
[3]
  mortality at 500 µg/mL: ≥ 90%
[4]
  mortality at 10 µg/cm2: ≥ 50%

## O=C(Nc1ccc(F)cc1)C1=C(O)CC(c2ccc(C(F)(F)F)c(-c3ccccc3)c2)NC1=O (stereo not shown) [1-004]
[1]
  mortality at 500 µg/mL: ≥ 90%
[3]
  mortality at 500 µg/mL: ≥ 90%
[4]
  mortality at 10 µg/cm2: ≥ 50%

## Cc1cccc(-c2cc(C3CC(O)=C(C(=O)Nc4cccnc4Cl)C(=O)N3)cnc2Cl)c1 (stereo not shown) [2-274]
[1]
  mortality at 500 µg/mL: ≥ 90%
[3]
  mortality at 500 µg/mL: ≥ 90%
[4]
  mortality at 10 µg/cm2: ≥ 50%

## N#Cc1ccc(-c2cc(C3CC(O)=C(C(=O)Nc4ccc(F)cc4)C(=O)N3)ccc2C(F)(F)F)cc1 (stereo not shown) [1-023]
[1]
  mortality at 500 µg/mL: ≥ 90%
[2]
  mortality at 500 µg/mL: ≥ 90%
[3]
  mortality at 500 µg/mL: ≥ 90%
[4]
  mortality at 10 µg/cm2: ≥ 50%

## CC(=O)c1cccc(-c2cc(C3CC(O)=C(C(=O)Nc4ccc(F)cc4)C(=O)N3)ccc2C(F)(F)F)c1 (stereo not shown) [1-011]
[1]
  mortality at 500 µg/mL: ≥ 90%
[2]
  mortality at 500 µg/mL: ≥ 90%
[3]
  mortality at 500 µg/mL: ≥ 90%
[4]
  mortality at 10 µg/cm2: ≥ 50%

## O=C(Nc1ccc(F)cc1)C1=C(O)CC(c2ccc(C(F)(F)F)c(-c3ccccc3F)c2)NC1=O (stereo not shown) [1-005]
[1]
  mortality at 500 µg/mL: ≥ 90%
[2]
  mortality at 500 µg/mL: ≥ 90%
[3]
  mortality at 500 µg/mL: ≥ 90%
[4]
  mortality at 10 µg/cm2: ≥ 50%

## COc1cccc(-c2cc(C3CC(O)=C(C(=O)Nc4ccc(F)cc4)C(=O)N3)ccc2C(F)(F)F)c1 (stereo not shown) [1-017]
[1]
  mortality at 500 µg/mL: ≥ 90%
[2]
  mortality at 500 µg/mL: ≥ 90%
[3]
  mortality at 500 µg/mL: ≥ 90%
[4]
  mortality at 10 µg/cm2: ≥ 50%
